Experimental data taken from ChEMBL document CHEMBL4616724, “Topoisomerase Inhibitors Addressing Fluoroquinolone Resistance in Gram-Negative Bacteria” (J Med Chem, 2020).
pIC50: −log10 of the molar value. In brackets after ≈: the same amount, converted by molar mass.

Key:
Pseudomonas aeruginosa [1] = assay: Antibacterial activity against Pseudomonas aeruginosa K1542/K767 harboring MexB/MexXY deletion mutant by CLSI-based broth microdilution assay; type: functional
Pseudomonas aeruginosa [2] = assay: Antibacterial activity against wild type Pseudomonas aeruginosa PAO1 K767 by CLSI-based broth microdilution assay; type: functional
Escherichia coli [3] = assay: Antibacterial activity against wild type Escherichia coli ATCC 25922 at pH 7.4 by CLSI-based broth microdilution assay; type: functional
Pseudomonas aeruginosa [4] = assay: Antibacterial activity against Pseudomonas aeruginosa NB52023 harboring gyrA T83I mutant/ParC S87L mutant by CLSI-based broth microdilution assay; type: functional
Escherichia coli [5] = assay: Antibacterial activity against Escherichia coli BW25113/JW0451-2 harboring AcrB deletion mutant by CLSI-based broth microdilution assay; type: functional
Klebsiella pneumoniae = assay: Antibacterial activity against wild type Klebsiella pneumoniae ATCC 43816 by CLSI-based broth microdilution assay; type: functional
[6] = Solubility of the compound in pH 7 PBS incubated for 24 hrs under gently shaking condition by UPLC/UV/CLND/MS analysis; type: physicochemical
[7] = Photoirradiation factor, ratio of IC50 for BALB/c mouse 3T3 cells under dark condition to IC50 for BALB/c mouse 3T3 cells under 5 J/cm2 sunlight irradiation by neutral red uptake assay; type: ADME, cell-based, NIH3T3; details: BALB/c 3T3 cells, read-out: Ratio IC50
Escherichia coli [8] = assay: Antibacterial activity against wild type Escherichia coli ATCC 25922 at pH 5.8 by CLSI-based broth microdilution assay; type: functional
[9] = Intrinsic clearance in rat liver microsomes at 1 uM in presence of NADPH and measured up to 30 mins by LC-MS/MS analysis; type: ADME, Microsome; details: read-out: CLH
[10] = Intrinsic clearance in human liver microsomes at 1 uM in presence of NADPH and measured up to 30 mins by LC-MS/MS analysis; type: ADME, Microsome; details: read-out: CLH
[11] = Protein binding in pooled human plasma at 10 uM incubated for 4 hrs under shaking condition by LC-MS/MS analysis; type: ADME, cell-free; details: read-out: PPB (converted)
[12] = Inhibition of recombinant full-length C-terminal His6-tagged Escherichia coli DNA topoisomerase 4 subunit ParC/ParE using kinetoplast DNA as substrate preincubated for 30 mins followed by substrate addition and measured after 1 hr in presence of ATP by size exclusion chromatography
[13] = Protein binding in CD1 mouse plasma at 10 uM incubated for 4 hrs under shaking condition by LC-MS/MS analysis; type: ADME, cell-free; details: read-out: PPB (converted)
DNA gyrase = DNA gyrase (Escherichia coli, UniProt P0AES4+P0AES6); assay: Inhibition of recombinant full-length C-terminal His6-tagged Escherichia coli DNA gyrase AB supercoiling activity using relaxed DNA as substrate preincubated for 30 mins followed by substrate addition and measured after 2 hrs in presence of ATP by size exclusion HPLC analysis; type: protein-complex assay
[14] = Protein binding in Sprague-Dawley rat plasma at 10 uM incubated for 4 hrs under shaking condition by LC-MS/MS analysis; type: ADME, cell-free; details: read-out: PPB (converted)
[15] = n-Octanol-PBS buffer partition coefficient, log D of the compound at pH 7.4 after overnight incubation by LC/UV/qTOF analysis; type: physicochemical
Escherichia coli [16] = assay: Ratio of MIC for antibacterial activity against wild type Escherichia coli ATCC 25922 at pH 5.8 to MIC for antibacterial activity against wild type Escherichia coli ATCC 25922 at pH 7.4; type: functional

Compound	MIC (Pseudomonas aeruginosa [1])	MIC (Pseudomonas aeruginosa [2])	MIC (Escherichia coli [3])	MIC (Pseudomonas aeruginosa [4])	MIC (Escherichia coli [5])	MIC (Klebsiella pneumoniae)	also measured
Cc1c(N2CC[C@@H]([C@H](C)N)C2)c(F)cc2c(Cl)cc(=O)n(C3CC3)c12	4 µg/mL (≈ 11 µM)	8 µg/mL (≈ 22 µM)	2 µg/mL (≈ 5.5 µM)	8 µg/mL (≈ 22 µM)	0.06 µg/mL (≈ 0.165 µM)	4 µg/mL (≈ 11 µM)	–
NCc1cc(=O)n(C2CC2)c2c(OC(F)F)c(N3CC4CC4(N)C3)c(F)cc12 (configuration not stated)	8 µg/mL (≈ 20.3 µM)	> 32 µg/mL	2 µg/mL (≈ 5.07 µM)	32 µg/mL (≈ 81.1 µM)	1 µg/mL (≈ 2.54 µM)	8 µg/mL (≈ 20.3 µM)	–
Cc1c(CN)c2cc(F)c(N3CC4CC4(N)C3)c(C)c2n(C2CC2)c1=O (configuration not stated)	1 µg/mL (≈ 2.81 µM)	8 µg/mL (≈ 22.4 µM)	0.25 µg/mL (≈ 0.701 µM)	2 µg/mL (≈ 5.61 µM)	0.125 µg/mL (≈ 0.351 µM)	1 µg/mL (≈ 2.81 µM)	–
Cc1c(-c2cc(F)c(N)cc2F)c(F)cc2c(CN)cc(=O)n(C3CC3)c12	2 µg/mL (≈ 5.36 µM)	8 µg/mL (≈ 21.4 µM)	0.25 µg/mL (≈ 0.67 µM)	8 µg/mL (≈ 21.4 µM)	≤ 0.03 µg/mL	1 µg/mL (≈ 2.68 µM)	solubility ([6]; buffer, pH 7, 24 h): Insoluble
Cc1c(N2CC[C@@H]([C@H](C)N)C2)c(F)cc2c(C#N)cc(=O)n(C3CC3)c12	1 µg/mL (≈ 2.82 µM)	4 µg/mL (≈ 11.3 µM)	1 µg/mL (≈ 2.82 µM)	1 µg/mL (≈ 2.82 µM)	≤ 0.03 µg/mL	2 µg/mL (≈ 5.64 µM)	–
COc1c(N2CC3(C)CC3(N)C2)c(F)cc2c(CN)cc(=O)n(C3CC3)c12 (configuration not stated)	8 µg/mL (≈ 21.5 µM)	32 µg/mL (≈ 85.9 µM)	1 µg/mL (≈ 2.68 µM)	16 µg/mL (≈ 43 µM)	0.25 µg/mL (≈ 0.671 µM)	4 µg/mL (≈ 10.7 µM)	–
Cc1c(N2C[C@@H]3[C@@H](N)[C@@H]3C2)c(F)cc2c(CN)cc(=O)n(C3CC3)c12	1 µg/mL (≈ 2.92 µM)	16 µg/mL (≈ 46.7 µM)	1 µg/mL (≈ 2.92 µM)	2 µg/mL (≈ 5.84 µM)	0.25 µg/mL (≈ 0.73 µM)	4 µg/mL (≈ 11.7 µM)	–
C[C@@H]1CN(c2c(F)c(N)c3c(=O)c(C(=O)O)cn(C4CC4)c3c2F)C[C@H](C)N1 [SPARFLOXACIN]	–	–	–	–	–	–	selectivity ratio [7]: > 82
Cc1c(N2CC3CC3(CN)C2)c(F)cc2c(CN)cc(=O)n(C3CC3)c12 (racemic)	4 µg/mL (≈ 11.2 µM)	32 µg/mL (≈ 89.8 µM)	8 µg/mL (≈ 22.4 µM)	16 µg/mL (≈ 44.9 µM)	1 µg/mL (≈ 2.81 µM)	32 µg/mL (≈ 89.8 µM)	–
Cc1c(N2C[C@@]3(C)C[C@@]3(N)C2)c(F)cc2c(CN)cc(=O)n(C3CC3)c12 (racemic)	1 µg/mL (≈ 2.81 µM)	4 µg/mL (≈ 11.2 µM)	0.125 µg/mL (≈ 0.351 µM)	2 µg/mL (≈ 5.61 µM)	≤ 0.03 µg/mL	0.25 µg/mL (≈ 0.701 µM)	–
Cc1c(N2CC3CC3(N)C2)c(F)cc2c(CN)c(Cl)c(=O)n(C3CC3)c12 (configuration not stated)	1 µg/mL (≈ 2.65 µM)	8 µg/mL (≈ 21.2 µM)	0.25 µg/mL (≈ 0.663 µM)	2 µg/mL (≈ 5.31 µM)	0.06 µg/mL (≈ 0.159 µM)	0.5 µg/mL (≈ 1.33 µM)	–
Cc1c(N2CC[C@@H]([C@H](C)N)C2)c(F)cc2ccc(=O)n(C3CC3)c12	4 µg/mL (≈ 12.1 µM)	16 µg/mL (≈ 48.6 µM)	1 µg/mL (≈ 3.04 µM)	8 µg/mL (≈ 24.3 µM)	0.06 µg/mL (≈ 0.182 µM)	4 µg/mL (≈ 12.1 µM)	MIC (Escherichia coli [8]): 16 µg/mL (≈ 48.6 µM); microsomal CLint at 1 µM [9]: 10 µL/min/mg; microsomal CLint at 1 µM [10]: < 7.7 µL/min/mg; fraction unbound at 4 h, 10 µM [11]: 0.1; pIC50 [12]: 6.41; fraction unbound at 4 h, 10 µM [13]: 0.19; pIC50 (DNA gyrase): 6.37; fraction unbound at 4 h, 10 µM [14]: 0.25; solubility at 24 h ([6]; PBS, pH 7): 498 µg/mL (≈ 1510 µM); logD [15]: 0.74
Cc1c(N2CC[C@@H]([C@H](C)N)C2)c(F)cc2c(OCCN(C)C)cc(=O)n(C3CC3)c12	4 µg/mL (≈ 9.6 µM)	8 µg/mL (≈ 19.2 µM)	1 µg/mL (≈ 2.4 µM)	8 µg/mL (≈ 19.2 µM)	–	4 µg/mL (≈ 9.6 µM)	–
N#Cc1c(N2CC3CC3(N)C2)c(F)cc2c(CN)cc(=O)n(C3CC3)c12 (configuration not stated)	2 µg/mL (≈ 5.66 µM)	16 µg/mL (≈ 45.3 µM)	1 µg/mL (≈ 2.83 µM)	4 µg/mL (≈ 11.3 µM)	0.125 µg/mL (≈ 0.354 µM)	2 µg/mL (≈ 5.66 µM)	–
NCc1cc(=O)n(C2CC2)c2cc(N3CC4CC4(N)C3)c(F)cc12 (configuration not stated)	2 µg/mL (≈ 6.09 µM)	16 µg/mL (≈ 48.7 µM)	1 µg/mL (≈ 3.05 µM)	4 µg/mL (≈ 12.2 µM)	0.5 µg/mL (≈ 1.52 µM)	4 µg/mL (≈ 12.2 µM)	–
Cc1c(N2CC[C@@H](N)C2)c(F)cc2c(CN)cc(=O)n(C3CC3)c12	8 µg/mL (≈ 24.2 µM)	> 32 µg/mL	16 µg/mL (≈ 48.4 µM)	32 µg/mL (≈ 96.9 µM)	2 µg/mL (≈ 6.05 µM)	8 µg/mL (≈ 24.2 µM)	–
Cc1c(N2CC[C@@H]([C@H](C)N)C2)c(F)cc2c(-c3n[nH]c(=O)o3)cc(=O)n(C3CC3)c12	8 µg/mL (≈ 19.3 µM)	> 32 µg/mL	8 µg/mL (≈ 19.3 µM)	32 µg/mL (≈ 77.4 µM)	–	32 µg/mL (≈ 77.4 µM)	–
Cc1c(N2CC[C@@H]([C@H](C)N)C2)c(F)cc2c(CO)cc(=O)n(C3CC3)c12	4 µg/mL (≈ 11.1 µM)	16 µg/mL (≈ 44.5 µM)	16 µg/mL (≈ 44.5 µM)	8 µg/mL (≈ 22.3 µM)	0.25 µg/mL (≈ 0.696 µM)	32 µg/mL (≈ 89 µM)	–
Cc1c(N2CC[C@@H]([C@H](C)N)C2)c(F)cc2c(=O)n(N)c(=O)n(C3CC3)c12	1 µg/mL (≈ 2.77 µM)	4 µg/mL (≈ 11.1 µM)	1 µg/mL (≈ 2.77 µM)	2 µg/mL (≈ 5.53 µM)	–	2 µg/mL (≈ 5.53 µM)	pIC50 [12]: 6.66
Cc1c(N2C[C@H]3CC[C@@]3(N)C2)c(F)cc2c(CN)cc(=O)n(C3CC3)c12 (racemic)	2 µg/mL (≈ 5.61 µM)	8 µg/mL (≈ 22.4 µM)	2 µg/mL (≈ 5.61 µM)	4 µg/mL (≈ 11.2 µM)	0.25 µg/mL (≈ 0.701 µM)	4 µg/mL (≈ 11.2 µM)	–
Cc1c(N2CC3CC3(N)C2)c(F)cc2c(CN)c(O)c(=O)n(C3CC3)c12 (configuration not stated)	0.5 µg/mL (≈ 1.4 µM)	2 µg/mL (≈ 5.58 µM)	0.5 µg/mL (≈ 1.4 µM)	2 µg/mL (≈ 5.58 µM)	0.25 µg/mL (≈ 0.698 µM)	1 µg/mL (≈ 2.79 µM)	–
COc1cc(=O)n(C2CC2)c2c(C)c(N3CC[C@@H]([C@H](C)N)C3)c(F)cc12	8 µg/mL (≈ 22.3 µM)	32 µg/mL (≈ 89 µM)	32 µg/mL (≈ 89 µM)	16 µg/mL (≈ 44.5 µM)	1 µg/mL (≈ 2.78 µM)	16 µg/mL (≈ 44.5 µM)	–
Cc1c(N2CCCC2)c(F)cc2c(CN)cc(=O)n(C3CC3)c12	4 µg/mL (≈ 12.7 µM)	32 µg/mL (≈ 101 µM)	1 µg/mL (≈ 3.17 µM)	8 µg/mL (≈ 25.4 µM)	0.06 µg/mL (≈ 0.19 µM)	2 µg/mL (≈ 6.34 µM)	–
Cc1c(N2CCC3CC3(N)C2)c(F)cc2c(CN)cc(=O)n(C3CC3)c12 (configuration not stated)	4 µg/mL (≈ 11.2 µM)	16 µg/mL (≈ 44.9 µM)	4 µg/mL (≈ 11.2 µM)	16 µg/mL (≈ 44.9 µM)	1 µg/mL (≈ 2.81 µM)	4 µg/mL (≈ 11.2 µM)	–
Cc1c(N2CC[C@H](O)C2)c(F)cc2c(CN)cc(=O)n(C3CC3)c12	0.25 µg/mL (≈ 0.754 µM)	4 µg/mL (≈ 12.1 µM)	0.5 µg/mL (≈ 1.51 µM)	1 µg/mL (≈ 3.02 µM)	≤ 0.03 µg/mL	1 µg/mL (≈ 3.02 µM)	MIC (Escherichia coli [8]): 8 µg/mL (≈ 24.1 µM); Ratio (Escherichia coli [16]): 16
Cc1c(N2CCNCC2)c(F)cc2c(CN)cc(=O)n(C3CC3)c12	0.5 to 1 µg/mL (≈ 1.51 to 3.03 µM)	4 to 8 µg/mL (≈ 12.1 to 24.2 µM)	0.25 to 4 µg/mL (≈ 0.757 to 12.1 µM)	1 to 2 µg/mL (≈ 3.03 to 6.05 µM)	0.06 to 1 µg/mL (≈ 0.182 to 3.03 µM)	0.5 to 2 µg/mL (≈ 1.51 to 6.05 µM)	–
